Assay results published in patent US11034702B2, “Thienoisoquinolines and their derivatives for the treatment of cancer” (VALORBEC, SOCIÉTÉ EN COMMANDITE, priority 2016, dated 2021).
Entries after “also recorded” stand apart in the source; their conditions may differ.

How the values were obtained:
HFF1 cells = experiment: Mitotic spindle phenotype in HFF1 cells; type: cell-based
Protocol: There were more rounded mitotic cells after C75 treatment in comparison to the control. FIG. 1B) is a line graph showing the percentage of HeLa and HFF1 cells in mitosis after treatment with various concentrations of C75 for 8 hours. The bars indicate standard deviation. FIG. 1C) is a series of images showing cells that were fixed and co-stained for tubulin (microtubules) and DAPI (DNA). Treatment of HeLa cells with 300 nM C75 caused the mitotic spindles to be disorganized, while they were not affected in HFF1 cells. […] The scale bar for the cells is 10 μm. FIG. 1D) is a cartoon schematic showing the key features of a metaphase cell.
FIG. 2A) is a line graph showing the percentage of HCT116 (p53−/−) cells, A549 cells, HeLa cells and H1299 cells in mitosis after treatment with various concentrations of C75 for one population doubling time. All of the cell lines show an increase in the proportion of mitotic cells after treatment with 200 nM C75. The bars indicate standard deviation. […]
C75 was also tested for efficacy in different cancer cell lines. […] To further assess the role of C75 in affecting centrosomes, HeLa cells were treated with C75 for a short period of time (5 minutes), then C75 was removed and the cells were analyzed for spindle phenotypes (schematic in FIG. 2D). […]

A549 spheroids = experiment: A549 multicellular tumour spheroids; type: cell-based, human
Protocol: FIG. 5A) is a series of images of HeLa multicellular tumor spheroids (spheroids) treated with control (500 nM C87), empty nanoparticles, 500 nM C75 and 250 nM C75-loaded nanoparticles over 3 days. […] The scale bar for all images is 100 μm. FIG. 5B) is a series images of HeLa spheroids after three days of treatment with control (500 nM C87) or 500 nM C75. The spheroids were stained for fluorescein diacetate (to detect live cells) and propidium iodide (to detect dead cells). […] The scale bar for all images is 100 μm. FIG. 5C) is a series of images of HCT116 spheroids treated with control (1 μM C87), 500 nM C75, 1 μM C75 and 500 nM C75-loaded nanoparticles over 5 days. […] The borders of the spheroids treated with 1 μM C75 or with 500 nM C75-loaded nanoparticles became highly irregular, indicative of loss of spheroid integrity. FIG. 5D) is a series images of HCT116 spheroids after six days of treatment with control (1 μM C87) or 1 μM C75. The spheroids were stained for fluorescein diacetate (live cells) and propidium iodide (dead cells). […] FIG. 5E) is a line graph showing the growth in surface area (%) of HCT116 spheroids treated with control (1 μM C87), 500 nM C75 and 1 μM C75 after six days. FIG. 5F) is a series of images of A549 spheroids treated with control (750 nM C87), 500 nM C75, 1 μM C75 and 500 nM C75-loaded nanoparticles over 5 days. […] The scale bar for all images is 100 μm. […]

## COc1ccc(S(=O)(=O)N2Cc3ccccc3-c3sc(Br)cc32)cc1 [Compound C75]
HFF1 cells; HFF1, 300 nM
  mitotic spindle phenotype: not affected; also recorded: majority of HFF1 cells had bipolar spindles
HFF1 cells; HFF1, 750 nM
  mitotic spindle phenotype: disorganized
A549 spheroids; 500 nM or 1 μM C75, 500 nM C75-loaded nanoparticles, over 5 days
  effect on growth of A549 spheroids: regress the growth
A549 spheroids; A549 spheroids, 1 μM, six days
  live/dead staining of spheroids (fluorescein diacetate / propidium iodide): fewer live cells
